{"source": "patent US20250059333A1", "about": "“BILAYER BIONIC DRUG-LOADED HYDROGEL, AND PREPARATION AND APPLICATION THEREOF” (Chengdu Hengkui Biotechnology Co., Ltd., priority 2022, published 2025)", "origin": "cited, not measured here", "details": "relative to glutaraldehyde, a commonly used chemical cross-linking agent"}
{"smiles": "COC(=O)C1=CO[C@@H](O)[C@@H]2C(CO)=CC[C@H]12", "note": "[genipin]", "values": [{"measurement": "toxicity lower than that of glutaraldehyde", "result": 10000, "unit": "times"}]}
